Data on two compounds can be found in patent US20180000798A1, “USE OF ACLIDINIUM” (Almirall, S.A., priority 2012, published 2018).

Structures are written as SMILES. Where two headings read alike, the source gives them in different places.

The subject of series [1] is patients with moderate to severe COPD. Kind of series: Phase III randomized, double-blind, placebo controlled crossover trial; physical activity measured with multisensor armband. The conditions noted are these: week 3; for Δ Comparison versus placebo, change from baseline in daily active energy expenditure / Δ Comparison versus placebo, change from baseline in duration of at least moderate activity: 400 micrograms aclidinium bromide per inhalation twice-daily, p < 0.05. Format: in vivo. An excerpt: In a Phase III randomized, double-blind, placebo controlled, 2 period crossover trial, patients with moderate to severe COPD received a dose of aclidinium equivalent to a metered nominal dose of 400 micrograms of aclidinium bromide per inhalation twice-daily (in the morning, 9 am, and in the evening, […]) and placebo for two periods of 3 weeks, with a washout period of 2 weeks between treatment periods.
Patients were randomised to receive either a dose of aclidinium equivalent to a metered nominal dose of 400 micrograms of aclidinium bromide per inhalation twice-daily in the first period followed by placebo in the second period, or to receive placebo in the first period followed by aclidinium bromide 400 micrograms twice-daily in the second period. Both aclidinium bromide and placebo were administered with a Genuair® multidose dry powder inhaler.
Physical activity (as minutes of at least moderate activity per day and as average active energy expenditure expressed in Kcal) was measured in the last week of the treatment with aclidinium and placebo using a multisensor armband (SenseWear™ Pro Armband; BodyMedia, Pittsburgh, Pa., USA), was worn on the upper right over the triceps muscle, according to the method described in Watz B et al, Eur Respir J, 2009; 33: 262-272. The multisensory armband incorporates a biaxial accelerometer that records steps per day and physiological sensors of energy expenditure.
A valid period of measurement was defined as 5 days of measurement with the patients wearing the accelerometer at least 22 hours per day.
The Intention-to-Treat (ITT) population included 109 patients.

The nature of series [2]: Solubility of aclidinium bromide. Format: physicochemical. An excerpt:
Aclidinium bromide is a white powder with a molecular formula of C26H30NO4S2Br and a molecular mass of 564.56.

A further series deals with patients with COPD. The conditions noted are these: previous trials, cited from earlier work.
[3] abbreviates: metered nominal dose 400 micrograms aclidinium bromide per inhalation twice-daily, adjusted mean, n = 85.

With `O=C(O[C@H]1C[N+]2(CCCOc3ccccc3)CCC1CC2)C(O)(c1cccs1)c1cccs1` [Aclidinium, 3(R)-(2-hydroxy-2,2-dithien-2-ylacetoxy)-1-(3-phenoxypropyl)-1-azoniabicyclo[2.2.2] octane], in series [1], the “Δ Comparison versus placebo, change from baseline in daily active energy expenditure” value is 55 (p < 0.05) Kcal and the “Δ Comparison versus placebo, change from baseline in duration of at least moderate activity” value is 10 (p < 0.05) minutes. Moreover, in series [1] (listed as aclidinium bromide), the “Δ Comparison versus placebo, change from baseline in daily active energy expenditure” value was 55 kcal and the “Δ Comparison versus placebo, change from baseline in duration of at least moderate activity” value came to 10 min. In series [1] (setting [3]), the “Change from baseline in daily active energy expenditure” value worked out at 21.9 kcal and the “Change from baseline in duration of at least moderate activity” value came out at 4.2 min. The Solubility in ethanol result in series [2] (ethanol) is listed as “very slightly soluble”. Further, the Solubility in methanol result in series [2] (methanol) is “sparingly soluble”. In series [2] (water), the Solubility in water entry was “very slightly soluble”.

As for `C[N+]1(C)[C@@H]2C[C@@H](OC(=O)C(O)(c3cccs3)c3cccs3)C[C@H]1[C@@H]1O[C@@H]12` [tiotropium], the “Improvement in physical activity versus placebo” value in the series with patients with COPD (listed as tiotroplum) was “not observed”; in the series with patients with COPD, “not statistically demonstrated improvements in physical activity”.
